# Source: patent publication US20100189772A1, “Compositions of TLR ligands and antivirals” (COLEY PHARMACEUTICAL GROUP, INC, priority 2006, published 2010)
# Where two headings read alike, the source gives them in different places.
# Columns and labels:
# T cell IFN-γ production = assay: In vivo treatment of mice with CpG ODN and/or RBV, ex vivo anti-CD3 induced IFN-gamma production of inguinal lymph node cells (ELISA); conditions: for T cell IFN-γ production ex-vivo after in vivo treatment with a single agent: SEQ ID NO. 14 100 micrograms SC or RBV 0.5 mg/kg IP alone, lymph node Day 6, ELISA Day 8, FIG. 4
# Experimental: (§1) We repeated the experiment with a lower dose of RBV in vivo (0.5 mg/kg IP).
# (§2) Mice were injected with SEQ ID NO. 14 (100 micrograms SC), RBV (0.5 mg/kg IP) or SEQ ID NO. 14 and RBV. RBV was administered in vivo either at day 0 or day 5 and CpG was administered at day O, Samples were isolated at Day 6 from the inguinal lymph node and maintained in medium on anti-CD3 coated plated in the presence of 1-16 μM RBV. On Day 8 an ELISA assay was performed to detect IFN-gamma.
# Human PBMC [1] = assay: Effect of Ribavirin on CpG ODN-induced cytokines in human PBMC co-culture; type: cell-based; conditions: for IC50: Homo sapiens, PBMC, calculated IC50 upon addition of Ribavirin to cultures containing 1 μM SEQ ID NO: 13
# Experimental: (§3) Cell purification Peripheral blood buffy coat preparations from healthy human donors were obtained from the Blood Bank of the University of Düsseldorf (Germany) and PBMC were purified by centrifugation over Ficoll-Hypaque (Sigma). Cells were cultured in a humidified incubator at 37° C. in RPMI 1640 medium supplemented with 5% (v/v) heat inactivated human AB serum (BioWhittaker) or 10% (v/v) heat inactivated FCS, 2 mM L-glutamine, 100 U/ml penicillin and 100 μg/ml streptomycin (all from Sigma).
# (§4) Cytokine detection PBMC were resuspended at a concentration of 5×10^6 cells/ml and added to 96 well round-bottomed plates (250 μl/well). PBMC were incubated with various ODN, ORN or nucleoside concentrations and culture supernatants (SN) were collected after the indicated time points. If not used immediately, SN were stored at −20° C. until required. For inhibitory experiments, cells were stimulated with the indicated TLR ligand concentration and nucleoside or ORN added. In some experiments, the second modified ORN was added 1 h after the start of the cell culture.
# (§5) Amounts of cytokines in the SN were assessed using a commercially available ELISA Kit for IL-12p40 (from BD Biosciences, Heidelberg, Germany), IFN-γ and TNF-α (from Diaclone, Besancon, France) or an in-house ELISA for IFN-α developed using commercially available antibodies (PBL, New Brunswick, N.J., USA). For analysis of a broad set of cytokines and chemokines, multiplex analysis with a luminex system from Bio-Rad (Munich, Germany) and Multiplex kits from Biosource (Solingen, Germany) was performed.
# The observations were particularly noted at lose doses of Ribavirin.
# [2] = test system: bone marrow (BM) derived dendritic cells (DCs); assay: Cytokine production of bone marrow derived dendritic cells treated with SEQ ID NO. 14 and/or RBV; type: cell-based
# Experimental: Similar experiments were performed using bone marrow (BM) derived dendritic cells (DCs). BM-derived DC maintained in GM-CSF were treated with SEQ ID NO. 14, RBV (1 μM, 5 μM, 10 μM, 100 μM, or 120 μM) or with SEQ ID NO. 14 and RBV. At 4, 24 and 72 hours samples were tested for cytokine, IL-10 (FIG. 6), IL-12p40 (FIG. 7A), IL-12p70 (FIG. 7B) and TNF (data not shown). No effects of RBV alone at 120 μM were observed. SEQ ID NO. 14 induced IL-12, IL-10 and TNF. RBV decreased IL-10 and TNF but increased IL-12 (at 72 h only). RBV decreased SEQ ID NO. […].
# [3] = test system: CD3-mediated IFN-γ production; assay: Ex vivo anti-CD3 stimulation of lymph node cells in the presence of RBV, IFN-gamma ELISA; type: cell-based, Mice
# Experimental: as §1, §2
# The ex vivo effect of RBV on CD3-mediated IFN-γ production independently of prior ODN/RBV treatment was examined. Similar to the data described above, low concentrations of RBV in vitro increased IFN-γ levels independently of previous in vivo treatments (FIG. 5A).
# Human PBMC [4] = assay: Cytokine induction by ORN in human PBMC (ELISA of supernatants); type: cell-based; conditions: human PBMC (n=3); for IFN-alpha cytokine induction, 8-modified nucleotide at the ORN 5′ end: FIG. 3, compared to the unmodified ORN (SEQ ID NO:8 and 11); for IFN-alpha cytokine induction, effect of the position of 8-Oxo-rG: FIG. 2, versus control SEQ ID NO:8
# Experimental: as §3, §4, §5
# Human PBMC (n=3) were stimulated with 8-Oxo-rG (a C-8 substituted guanosine) modified ORN (SEQ ID NO:1-4) and an unmodified ORN (SEQ ID NO:8). Supernatants were collected and cytokines IFN-alpha (FIG. 1a), IL-12p40 (FIG. 1b) and TNF-alpha (FIG. 1c) were measured.
# Human PBMC (n=3) were stimulated with the indicated ORN with a single 8-Oxo-rG at different positions of the ORN (SEQ ID NO:1-4) and the […] negative control (SEQ ID NO:8). Supernatants were collected and IFN-alpha measured.
# Human PBMC (n=3) were stimulated with the indicated ORN with a single 8-Oxo-rG/Dg (SEQ ID NO:1, 5), 8-Bromo-dG (SEQ ID NO:7) or Immunosine (Isatoribine) (SEQ ID NO:6) (with a 5′-5′ linkage) at the 5′ end of the ORN and IFN-alpha measured. […] Similar data were obtained for 8-Bromo-rG (data not shown). In addition, even the linkage of a 8-modified dA or rA (data not shown) results in an, although only slight increase of the cytokine induction.
# C26 SC mouse model = assay: C26 SC mouse cancer model, survival; type: in vivo; conditions: 100 micrograms ODN intra/peri tumor at days 7, 14, 21; 0.5 mg/kg RBV IP on same days; as of days 30-40; FIG. 8
# Experimental: C26 SC mouse model was treated with SEQ ID NO. 14 and RBV (100 micrograms ODN intra/peri tumor at days 7, 14, 21 and 0.5 mg/kg RBV IP on same days).
# [5] = human PBMC stimulated with CpG ODN (SEQ ID NO:15 as printed), increasing doses of Ribavirin
# [6] = SEQ ID NO. 14 alone, BM-derived DC in GM-CSF
compound,measurement,setting,value
NC(=O)c1ncn([C@@H]2O[C@H](CO)[C@@H](O)[C@H]2O)n1 [Ribavirin],effect of RBV on IFN-γ production when CpG ODN was also injected,"T cell IFN-γ production; RBV 0.5 mg/kg IP with SEQ ID NO. 14 100 micrograms SC, FIG. 4B",greatly enhanced
same,T cell IFN-γ production ex-vivo after in vivo treatment with a single agent,T cell IFN-γ production,small effect
same,ex vivo IFN-γ CD3-induced production after in vivo RBV,"T cell IFN-γ production; initial experiment, 10 mg/kg intraperitoneal (IP) RBV",no effect in vivo of RBV and possibly even a slight decrease
same,IC50,Human PBMC [1]; read-out: IC50 IFN-alpha,1000 µM
same,IC50,Human PBMC [1]; read-out: IC50 IL-6,320 µM
same,IC50,Human PBMC [1]; read-out: IC50 IL-10,58 µM
same,effect on the CpG-induced IL10 induction,Human PBMC [1]; [5],suppressive effect
same,suppressive effect with respect to IFN-alpha,Human PBMC [1]; [5],not observed
same,effect of RBV on SEQ ID NO. 14-induced IL-12p40,"[2]; BM-derived DC, FIG. 7A",decreased
same,effect of RBV on SEQ ID NO. 14-induced IL-12p70,"[2]; BM-derived DC, FIG. 7B",increased IL-12p70 (slightly)
same,effect of RBV on SEQ ID NO. 14-induced IL-10,"[2]; BM-derived DC, RBV 1-120 μM with SEQ ID NO. 14, FIG. 6",decreased
same,effect of RBV on IL-12,"[2]; BM-derived DC, RBV with SEQ ID NO. 14, at 72 h only",increased
same,effect of RBV on TNF,"[2]; BM-derived DC, RBV with SEQ ID NO. 14, data not shown",decreased
same,"cytokines (IL-10, IL-12p40, IL-12p70, TNF), RBV alone","[2]; RBV alone at 120 μM, 4, 24 and 72 hours",No effects
same,"IFN-γ production, ex vivo anti-CD3 stimulation in the presence of RBV","[3]; initial experiment, only at rather low concentrations of RBV (1-5 μM)",increase IFN-γ production
same,"CD3-mediated IFN-γ levels, RBV in vitro","[3]; low concentrations of RBV in vitro, independently of previous in vivo treatments, FIG. 5A",increased
"O*rU*rU*rG*rU*rG*rU (8-oxo-dG at 5' end, phosphorothioate linkages, as printed in the source, key not given here) [SEQ ID NO:5, ORN with a single 8-Oxo-rG/Dg at the 5′ end]","IFN-alpha cytokine induction, 8-modified nucleotide at the ORN 5′ end",Human PBMC [4],increased cytokine induction
"TCCATGACGTTCCTGATGC (chemistry not given here) [SEQ ID NO. 14, CpG ODN]",T cell IFN-γ production ex-vivo after in vivo treatment with a single agent,T cell IFN-γ production,increased
same,survival,C26 SC mouse model,prolonged survival
same,IL-10 induction,[2]; [6],induced
same,IL-12 induction,[2]; [6],induced
same,TNF induction,[2]; [6],induced
"iIM*rU*rU*rG*rU*rG*rU (5' isatoribine via 5'-5' linkage, phosphorothioate, as printed in the source, key not given here) [SEQ ID NO:6, ORN with Immunosine (Isatoribine) (with a 5′-5′ linkage) at the 5′ end]","IFN-alpha cytokine induction, 8-modified nucleotide at the ORN 5′ end",Human PBMC [4],increased cytokine induction
"rO*rU*rU*rG*rU*rG*rU (8-oxo-rG, phosphorothioate linkages, as printed in the source, key not given here) [SEQ ID NO:3, ORN with a single 8-Oxo-rG at the 5′ position]","IFN-alpha cytokine induction, effect of the position of 8-Oxo-rG",Human PBMC [4],increased cytokine induction
rO*rU*rU*rO*rU*rO*rU [SEQ ID NO:1],"IFN-alpha cytokine induction, effect of the position of 8-Oxo-rG",Human PBMC [4],increased cytokine induction
same,"IFN-alpha cytokine induction, 8-modified nucleotide at the ORN 5′ end",Human PBMC [4],increased cytokine induction
